What was measured:
Conditions in all cases: 48 h
NOMO1 [1] = experiment: cell viability relative to DMSO control; higher = less cytotoxic
How it was run: (§1)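 Leukemia cells (NOMO1 or SEM, 500 cells/well; P12-Ichikawa, 1000 cells/well) were seeded in 5 μl in 1536-well plates after at least four passages of adaptation to each medium. They received library compounds in DMSO by pin dosing, 11 threefold points from 47 μM to 0.79 nM. Luminescence with CellTiter-Glo One was read after 48 h at 37°C. Viability is stated per plate relative to DMSO wells, with cell-free wells as background.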

P12-Ichikawa [2] = experiment: as above
How it was run: as §1

SEM cells [3] = experiment: as above
How it was run: as §1

NOMO1 [4] = experiment: AUC of viability dose-response curve (% viability x log10 dose units); higher = less sensitive
How it was run: (§2)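 Leukemia cells adapted to each medium were seeded in 1536-well plates (500 or 1000 cells/well). They were dosed with library compounds in DMSO at 11 threefold doses, 47 μM to 0.79 nM, for 48 h at 37°C. CellTiter-Glo One luminescence was normalised per plate to DMSO and cell-free wells. Area under the curve was integrated by trapezoidal rule over log10 doses on a four-parameter log-logistic fit; curves exceeding full viability were scaled and curves failing quality control removed.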

P12-Ichikawa [5] = experiment: as above
How it was run: as §2

SEM cells [6] = experiment: as above
How it was run: as §2

COc1cccc2c(NCc3ccccc3)nc(-n3c(N)nc4ccccc43)nc12
cell viability [%]
Conditions | NOMO1 [1] | P12-Ichikawa [2] | SEM cells [3]
HPLM + 10% dialyzed FBS, 0.000781 µM | 85.6 | 99 | 81.2
HPLM + 10% dialyzed FBS, 0.00234 µM | 106 | 103 | 88.4
HPLM + 10% dialyzed FBS, 0.00702 µM | 94.9 | 108 | 104
HPLM + 10% dialyzed FBS, 0.0211 µM | 110 | 107 | 93.6
HPLM + 10% dialyzed FBS, 0.0632 µM | 129 | 108 | 89.1
HPLM + 10% dialyzed FBS, 0.19 µM | 105 | 112 | 90.6
HPLM + 10% dialyzed FBS, 0.569 µM | 115 | 109 | 83.2
HPLM + 10% dialyzed FBS, 1.71 µM | 107 | 111 | 92.2
HPLM + 10% dialyzed FBS, 5.12 µM | 107 | 94.3 | 64.1
HPLM + 10% dialyzed FBS, 15.4 µM | 97 | 58.3 | 29.6
HPLM + 10% dialyzed FBS, 46.1 µM | 18.8 | 8.25 | 8.4
RPMI 5 mM glucose + 10% FBS, 0.000781 µM | 92.8 | 94.8 | 95.2
RPMI 5 mM glucose + 10% FBS, 0.00234 µM | 96.2 | 108 | 92.8
RPMI 5 mM glucose + 10% FBS, 0.00702 µM | 105 | 95 | 98.7
RPMI 5 mM glucose + 10% FBS, 0.0211 µM | 105 | 115 | 97.5
RPMI 5 mM glucose + 10% FBS, 0.0632 µM | 117 | 111 | 94.8
RPMI 5 mM glucose + 10% FBS, 0.19 µM | 107 | 103 | 87.6
RPMI 5 mM glucose + 10% FBS, 0.569 µM | 106 | 111 | 95
RPMI 5 mM glucose + 10% FBS, 1.71 µM | 101 | 110 | 72.1
RPMI 5 mM glucose + 10% FBS, 5.12 µM | 101 | 114 | 54.9
RPMI 5 mM glucose + 10% FBS, 15.4 µM | 102 | 63.7 | 24.3
RPMI 5 mM glucose + 10% FBS, 46.1 µM | 16.7 | 6.11 | 7.18
RPMI 5 mM glucose + 10% dialyzed FBS, 0.000781 µM | 91.2 | 106 | 81.8
RPMI 5 mM glucose + 10% dialyzed FBS, 0.00234 µM | 96.2 | 100 | 73.7
RPMI 5 mM glucose + 10% dialyzed FBS, 0.00702 µM | 119 | 111 | 91.9
RPMI 5 mM glucose + 10% dialyzed FBS, 0.0211 µM | 111 | 99.6 | 99.8
RPMI 5 mM glucose + 10% dialyzed FBS, 0.0632 µM | 111 | 112 | 111
RPMI 5 mM glucose + 10% dialyzed FBS, 0.19 µM | 108 | 114 | 106
RPMI 5 mM glucose + 10% dialyzed FBS, 0.569 µM | 103 | 119 | 85.9
RPMI 5 mM glucose + 10% dialyzed FBS, 1.71 µM | 112 | 111 | 76.5
RPMI 5 mM glucose + 10% dialyzed FBS, 5.12 µM | 100 | 102 | 65.1
RPMI 5 mM glucose + 10% dialyzed FBS, 15.4 µM | 97.2 | 76.6 | 45.2
RPMI 5 mM glucose + 10% dialyzed FBS, 46.1 µM | 23.3 | 10.1 | 9.78

AUC of viability dose-response curve
Conditions | NOMO1 [4] | P12-Ichikawa [5] | SEM cells [6]
HPLM + 10% dialyzed FBS | 453 | 428 | 369
RPMI 5 mM glucose + 10% FBS | 457 | 435 | 367
RPMI 5 mM glucose + 10% dialyzed FBS | 455 | 439 | 379

CC(Cc1ccc(O)c(O)c1)(NN)C(=O)O (stereo not given)
cell viability [%]
Conditions | NOMO1 [1] | P12-Ichikawa [2] | SEM cells [3]
HPLM + 10% dialyzed FBS, 0.000781 µM | 104 | 110 | 103
HPLM + 10% dialyzed FBS, 0.00234 µM | 109 | 112 | 121
HPLM + 10% dialyzed FBS, 0.00702 µM | 102 | 107 | 130
HPLM + 10% dialyzed FBS, 0.0211 µM | 103 | 111 | 125
HPLM + 10% dialyzed FBS, 0.0632 µM | 117 | 130 | 122
HPLM + 10% dialyzed FBS, 0.19 µM | 113 | 114 | 131
HPLM + 10% dialyzed FBS, 0.569 µM | 107 | 105 | 105
HPLM + 10% dialyzed FBS, 1.71 µM | 99.3 | 102 | 112
HPLM + 10% dialyzed FBS, 5.12 µM | 115 | 100 | 108
HPLM + 10% dialyzed FBS, 15.4 µM | 121 | 101 | 119
HPLM + 10% dialyzed FBS, 46.1 µM | 92.3 | 78.5 | 79.9
RPMI 5 mM glucose + 10% FBS, 0.000781 µM | 114 | 102 | 117
RPMI 5 mM glucose + 10% FBS, 0.00234 µM | 118 | 113 | 130
RPMI 5 mM glucose + 10% FBS, 0.00702 µM | 113 | 122 | 122
RPMI 5 mM glucose + 10% FBS, 0.0211 µM | 126 | 120 | 127
RPMI 5 mM glucose + 10% FBS, 0.0632 µM | 115 | 113 | 126
RPMI 5 mM glucose + 10% FBS, 0.19 µM | 103 | 111 | 119
RPMI 5 mM glucose + 10% FBS, 0.569 µM | 105 | 108 | 99
RPMI 5 mM glucose + 10% FBS, 1.71 µM | 109 | 100 | 121
RPMI 5 mM glucose + 10% FBS, 5.12 µM | 112 | 112 | 110
RPMI 5 mM glucose + 10% FBS, 15.4 µM | 110 | 113 | 113
RPMI 5 mM glucose + 10% FBS, 46.1 µM | 106 | 65.3 | 76.1
RPMI 5 mM glucose + 10% dialyzed FBS, 0.000781 µM | 114 | 107 | –
RPMI 5 mM glucose + 10% dialyzed FBS, 0.00234 µM | 106 | 116 | –
RPMI 5 mM glucose + 10% dialyzed FBS, 0.00702 µM | 129 | 115 | –
RPMI 5 mM glucose + 10% dialyzed FBS, 0.0211 µM | 128 | 115 | –
RPMI 5 mM glucose + 10% dialyzed FBS, 0.0632 µM | 123 | 114 | –
RPMI 5 mM glucose + 10% dialyzed FBS, 0.19 µM | 106 | 109 | –
RPMI 5 mM glucose + 10% dialyzed FBS, 0.569 µM | 103 | 108 | –
RPMI 5 mM glucose + 10% dialyzed FBS, 1.71 µM | 99.8 | 104 | –
RPMI 5 mM glucose + 10% dialyzed FBS, 5.12 µM | 116 | 110 | –
RPMI 5 mM glucose + 10% dialyzed FBS, 15.4 µM | 106 | 110 | –
RPMI 5 mM glucose + 10% dialyzed FBS, 46.1 µM | 94.7 | 55.7 | –

AUC of viability dose-response curve
Conditions | NOMO1 [4] | P12-Ichikawa [5] | SEM cells [6]
HPLM + 10% dialyzed FBS | 475 | 448 | 469
RPMI 5 mM glucose + 10% FBS | 453 | 467 | 466
RPMI 5 mM glucose + 10% dialyzed FBS | 442 | 465 | 468
